Results taken from patent US5952335A, “Fused polycyclic heterocycle derivatives” (Eisai Co., Ltd., priority 1995, dated 1999).
Counter-ions that a name gives are not always drawn.

System: P388 cells
Assay: in vitro Antitumor Test on P388 Cells (Mouse Leukemic Cells), MTT, 3 days
Type: cell-based
Conditions: 72 h, 3 days incubation
Experimental: P388 cells suspended in RPMI1640 medium (manufactured by Sanko Junyaku) containing 10% of fetal calf serum, (100 U/ml) of penicillin, 100 μg/ml of streptomycin, 5×10^-5 M of mercaptoethanol and 1 mM of sodium pyruvate were pipetted into a 96-well U-bottomed microplate at a ratio of 1.25×10^3 cells (0.1 ml) per well and incubated in a incubator containing 5% of carbon dioxide at 37° C. for a day. A compound of the present invention was dissolved in dimethyl sulfoxide to give a concentration of 10^-2 M and then diluted with the 10% fetal calf serum-containing RPMI1640 culture medium to give a concentration of 10^-4 or 10^-5 M. By taking this concentration as the maximal level, threefold serial dilution was effected with the use of the 10% fetal calf serum-containing RPMI1640 culture medium. Then these dilutions were added to the P388 incubation plate as described above at a ratio of 0.1 ml per well followed by incubation in an incubator containing 5% of carbon dioxide at 37° C. for 3 days. After the completion of the incubation, 0.05 ml/well of a 3.3 mg/ml solution of MTT [3-(4,5-dimethylthiazol-2-yl)-2,5-diphenyltetrazolium bromide] was added thereto and the incubation was continued for additional 2 hours. The microplate was centrifuged and the supernatant was aspirated off from each well. Then the formazan thus formed was dissolved in 0.1 ml of dimethyl sulfoxide and the absorbance thereof at 540 nm measured with a microplate reader was taken as an indication of the viable cell count. In accordance with the following formula, the inhibitory ratio was calculated and the 50% inhibitory concentration (IC50) of the test compound was determined: [formula] wherein T means the absorbance of a well containing the test compound; and C means the absorbance of a well containing no test compound.

Row | SMILES | IC50
1 | CN(C)CCn1c(=O)c2cccc3c4c5c(ccc4n(c1=O)c23)C(O)CCC5 (single isomer, unassigned; (+)) [Example 6, (+)-5-[2-(Dimethylamino)ethyl]-10-hydroxy-10,11,12,13-tetrahydro-4H-benzo[c]pyrimido[5,6,1-jk]carbazole-4,6(5H)-dione] | 1.7 nM
2 | CN(C)CCn1c(=O)c2cccc3c4c5c(ccc4n(c1=O)c23)C(O)CCC5 (centres unmarked) [Example 5, 5-[2-(Dimethylamino)ethyl]-10-hydroxy-10,11,12,13-tetrahydro-4H-benzo[c]pyrimido[5,6,1-jk]carbazole-4,6(5H)-dione] | 4.8 nM
3 | CN(C)CCn1c(=O)c2cccc3c4c5c(ccc4n(c1=O)c23)C(O)CO5 (centres unmarked) [Example 9, 2,3-Dihydro-8-[2-(dimethylamino)ethyl]-3-hydroxy-7H-furo[3,2-c]pyrimido[5,6,1-jk]carbazole-7,9(8H)-dione] | 6.7 nM
4 | CN(C)CCn1c(=O)c2cccc3c4ccc5sccc5c4n(c1=O)c23 [Example 14, 2-[2-(Dimethylamino)ethyl]-1H-pyrimido[5,6,1-jk]thieno[3,2-a]carbazole-1,3(2H)-dione hydrochloride] | 74 nM
5 | CN(C)CCn1c(=O)c2cccc3c4c5c(ccc4n(c1=O)c23)C(=O)CCO5 [Example 15, 2,3-Dihydro-9-[2-(dimethylamino)ethyl]-4H,8H-pyrano[3,2-c]pyrimido[5,6,1-jk]carbazole-4,8,10(9H)-trione hydrochloride] | 140 nM
6 | CN(C)CCn1c(=O)c2cccc3c4c5occc(=O)c5ccc4n(c1=O)c23 [Example 16, 9-[2-(Dimethylamino)ethyl]-4H,8H-pyrano[3,2-c]pyrimido [5,6,1-jk]carbazole-4,8,10(9H)-trione hydrochloride] | 110 nM
7 | CN(C)CCn1c(=O)c2cccc3c4ccc5occc5c4n(c1=O)c23 [Example 17, 2-[2-(Dimethylamino)ethyl]-1H-furo[3,2-a]pyrimido[5,6,1-jk]carbazole-1,3(2H)-dione hydrochloride] | 34 nM
8 | CN(C)CCn1c(=O)c2cccc3c4ccc5ccccc5c4n(c1=O)c23 [Example 18, 2-[2-(Dimethylamino)ethyl]-1H-benzo[a]pyrimido[5,6,1-jk]carbazole-1,3(2H)-dione hydrochloride] | 76 nM
9 | CN(C)CCCn1c(=O)c2cccc3c4c5ccccc5ccc4n(c1=O)c23 [Example 19, 5-[3-(Dimethylamino)propyl]-4H-benzo[c]pyrimido[5,6,1-jk]carbazole-4,6(5H)-dione hydrochloride] | 220 nM
10 | COc1ccc2c(ccc3c2c2cccc4c(=O)n(CCN(C)C)c(=O)n3c42)c1 [Example 22, 5-[2-(Dimethylamino)ethyl]-11-methoxy-4H-benzo[c]pyrimido [5,6,1-jk]carbazole-4,6(5H)-dione hydrochloride] | 290 nM
11 | COc1cccc2c1ccc1c2c2cccc3c(=O)n(CCN(C)C)c(=O)n1c32 [Example 23, 5-[2-(Dimethylamino)ethyl]-10-methoxy-4H-benzo[c]pyrimido[5,6,1-jk]carbazole-4,6(5H)-dione hydrochloride] | 81 nM
12 | CN(C)CCn1c(=O)c2c3ccccc3nc3c4ccccc4n(c1=O)c32 [Example 24, 2-[2-(Dimethylamino)ethyl]-1H-benzo[b]pyrimido[1,6,5-lm]-4-azacarbazole-1,3(2H)-dione dihydrochloride] | 320 nM
13 | CN(C)CCn1c(=O)c2cccc3c4c5c(ccc4n(c1=O)c23)C(=O)OCC5 [Example 25, 1,2-Dihydro-9-[2-(dimethylamino)ethyl]-4H,8H-pyrano[3,4-c]pyrimido[5,6,1-jk]carbazole-4,8,10(9H)-trione hydrochloride] | 28 nM
14 | CN(C)CCn1c(=O)c2cc([N+](=O)[O-])cc3c2n(c1=O)-c1cc2ccccc2cc1O3 [Example 27, 2-[2-(Dimethylamino)ethyl]-5-nitro-1H-benzo[b]pyrimido [5,6,1-kl]phenoxazine-1,3(2H)-dione hydrochloride] | 490 nM
15 | CN(C)CCn1c(=O)c2cc(Cl)cc3c4c5ccccc5ccc4n(c1=O)c23 [Example 28, 2-Chloro-5-[2-(dimethylamino)ethyl]-4H-benzo[c]pyrimido [5,6,1-jk]carbazole-4,6(5H)-dione hydrochloride] | 70 nM
16 | CN(C)CCn1c(=O)c2cccc3c4c5c(=O)[nH]ccc5ccc4n(c1=O)c23 [Example 29, 9-[2-(Dimethylamino)ethyl]-8H-pyrido[4,3-c]pyrimido[5,6,1-jk]carbazole-1,8,10(2H,9H)-trione hydrochloride] | 71 nM

Row | SMILES | IC50
17 | CN(C)CCn1c(=O)c2cccc3c4c5ccccc5ncc4n(c1=O)c23 [Example 30, 5-[2-(Dimethylamino)ethyl]-4H-quino[4',3'-4,5]pyrrolo [3,2,1-ij]quinazoline-4,6(5H)-dione dihydrochloride] | 32 nM
18 | CN(C)CCn1c(=O)c2cc(N)cc3c2n(c1=O)-c1cc2ccccc2cc1O3 [Example 31, 5-Amino-2-[2-(dimethylamino)ethyl]-1H-benzo[b]pyrimido [5,6,1-kl]phenoxazine-1,3(2H)-dione dihydrochloride] | 110 nM
19 | COc1cccc2ccc3c(c4cccc5c(=O)n(CCN(C)C)c(=O)n3c54)c12 [Example 32, 5-[2-(Dimethylamino)ethyl]-13-methoxy-4H-benzo[c]pyrimido [5,6,1-jk]carbazole-4,6(5H)-dione hydrochloride] | 410 nM
20 | CN(C)CCCCn1c(=O)c2cccc3c4c5ccccc5ccc4n(c1=O)c23 [Example 34, 5-[4-(Dimethylamino)butyl]-4H-benzo[c]pyrimido[5,6,1-jk]carbazole-4,6(5H)-dione hydrochloride] | 450 nM
21 | CN(C)CCn1c(=O)c2cccc3c4c5cccnc5ccc4n(c1=O)c23 [Example 36, 9-[2-(Dimethylamino)ethyl]-8H-pyrido[2,3-c]pyrimido[5,6,1-jk]carbazole-8,10(9H)-dione dihydrochloride] | 14 nM
22 | CN(C)CCn1c(=O)c2cc([N+](=O)[O-])cc3c4c5ccccc5ccc4n(c1=O)c23 [Example 37, 5-[2-(Dimethylamino)ethyl]-2-nitro-4H-benzo[c]pyrimido [5,6,1-jk]carbazole-4,6(5H)-dione hydrochloride] | 380 nM
23 | Cc1cc2c(=O)n(CCN(C)C)c(=O)n3c4ccc5ccccc5c4c(c1)c23 [Example 38, 5-[2-(Dimethylamino)ethyl]-2-methyl-4H-benzo[c]pyrimido [5,6,1-jk]carbazole-4,6(5H)-dione hydrochloride] | 110 nM
24 | CN(C)CCn1c(=O)c2cccc3c4c5c(ccc4n(c1=O)c23)C(=O)NCC5 [Example 39, 1,2-Dihydro-9-[2-(dimethylamino)ethyl]-8H-pyrido[3,4-c]pyrimido[5,6,1-jk]carbazole-4,8,10(3H,9H)-trione hydrochloride] | 7.7 nM
25 | CN(C)CCn1c(=O)c2cccc3c4c5c(ccc4n(c1=O)c23)OCO5 [Example 40, 8-[2-(Dimethylamino)ethyl]-7H-1,3-dioxolo[4,5-c]pyrimido [5,6,1-jk]carbazole-7,9(8H)-dione hydrochloride] | 220 nM
26 | CN(C)CCn1c(=O)c2cccc3c4c5ccc(Br)cc5ccc4n(c1=O)c23 [Example 41, 11-Bromo-5-[2-(dimethylamino)ethyl]-4H-benzo[c]pyrimido [5,6,1-jk]carbazole-4,6(5H)-dione hydrochloride] | 320 nM
27 | CN(C)CCn1c(=O)c2cccc3c4cc5ccccc5cc4n(c1=O)c23 [Example 42, 2-[2-(Dimethylamino)ethyl]-1H-benzo[b]pyrimido[5,6,1-jk]carbazole-1,3(2H)-dione hydrochloride] | 49 nM
28 | CN(C)CCn1c(=O)c2cccc3c4c5c(ccc4n(c1=O)c23)CCCC5 [Example 43, 5-[2-(Dimethylamino)ethyl]-10,11,12,13-tetrahydro-4H-benzo[b]pyrimido[5,6,1-jk]carbazole-4,6(5H)-dione hydrochloride] | 66 nM
29 | CN(C)CCn1c(=O)c2cccc3c4c5c(ccc4n(c1=O)c23)C(=O)C(C)(C)CC5 [Example 44, 12,13-Dihydro-11,11-dimethyl-5-[2-(dimethylamino)ethyl]-4H-benzo[c]pyrimido[5,6,1-jk]carbazole-4,6,10(5H,11H)-trione hydrochloride] | 360 nM
30 | COc1cc2c(=O)n(CCN(C)C)c(=O)n3c4ccc5ccccc5c4c(c1)c23 [Example 45, 5-[2-(Dimethylamino)ethyl]-2-methoxy-4H-benzo[c]pyrimido [5,6,1-jk]carbazole-4,6(5H)-dione hydrochloride] | 160 nM
31 | CN(C)CCn1c(=O)c2cccc3c4c5ccc(O)cc5ccc4n(c1=O)c23 [Example 46, 5-[2-(Dimethylamino)ethyl]-11-hydroxy-4H-benzo[c]pyrimido [5,6,1-jk]carbazole-4,6(5H)-dione hydrochloride] | 77 nM
32 | CN(C)CCn1c(=O)c2cc(N)cc3c4c5ccccc5ccc4n(c1=O)c23 [Example 47, 2-Amino-5-[2-(dimethylamino)ethyl]-4H-benzo[c]pyrimido [5,6,1-jk]carbazole-4,6(5H)-dione dihydrochloride] | 250 nM
